Data reported in patent US12678509B2, “Inhibitor of apoptosis (IAP) protein antagonists” (Sanford Burnham Prebys Medical Discovery Institute, priority 2019, dated 2026).

Columns and labels:
[1] = test system: NB-4; experiment: Cell viability (CellTiter-Glo); type: cell-based, Human; conditions: Homo sapiens, NB-4, 72 h, read-out: NB-4 Viability 72 h IC50
Protocol: The compound 18a was tested in 16 different cell lines. For 6-day compound treatment 1700 cells per well were plated in a 384-well plate (Corning #781098) and incubated overnight at 37° C./5% CO2. […] Afterwards, 20 μL CellTiter-Glo reagent (Promega, #G7570) was added to each well outside of the incubator and the plates were read for luminescence on a Spark® multimode microplate reader (Tecan). Data was fit in GraphPad Prism 8 to a nonlinear regression curve to determine the IC50 of the compounds. […]

[2] = test system: MOLM 13; experiment: Cell viability (CellTiter-Glo), 6-day compound treatment; type: cell-based, Human; conditions: Homo sapiens, MOLM-13, 144 h, read-out: MOLM 13 Viability 6 d IC50
Protocol: The compound 18a was tested in 16 different cell lines. For 6-day compound treatment 1700 cells per well were plated in a 384-well plate (Corning #781098) and incubated overnight at 37° C./5% CO2. The following day, compounds in 10-fold dilutions were added to the plates and the plates were incubated for 6 days. Afterwards, 20 μL CellTiter-Glo reagent (Promega, #G7570) was added to each well outside of the incubator and the plates were read for luminescence on a Spark® multimode microplate reader (Tecan). Data was fit in GraphPad Prism 8 to a nonlinear regression curve to determine the IC50 of the compounds. […]

[3] = test system: SKOV-3; experiment: Cell viability (CellTiter-Glo), 48 hrs; type: cell-based; conditions: Homo sapiens, SK-OV-3, 48 h, read-out: SKOV-3 Viability 48 h IC50
Protocol: One thousand seven hundred cells per well were plated in a 384 well plate and incubated overnight at 37° C./5% CO2. The following day, compounds in 10-fold dilutions were added to the plates and the plates returned to the incubator for 48 hrs. 48 hrs later, plates were removed to the bench and 20 μL CellTiter-Glo reagent was added to each well and the plates were read for luminescence on a Spark® multimode microplate reader (Tecan). Data were fit using PRISM to a nonlinear regression curve to determine the IC50 of the compounds.

[4] = target: BIR3 domain of cIAP1 (Homo sapiens, UniProt Q13490); experiment: Fluorescence polarization assay; type: binding; conditions: SMAC-FITC probe, Ki calculated from IC50
BIR3 domain of cIAP1, sequence (Q13490 253-363 limits assumed): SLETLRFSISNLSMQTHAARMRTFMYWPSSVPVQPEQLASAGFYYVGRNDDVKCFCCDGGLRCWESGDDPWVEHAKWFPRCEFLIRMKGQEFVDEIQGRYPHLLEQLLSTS
Protocol: Binding of compounds to ML-IAP and BIR3 domain of cIAP1, cIAP2 and XIAP was determined by fluorescence polarization. Assay buffer was 100 mM KH2PO4 at pH 7.5, 50 μM ZnSO4, 1 mM TCEP (Tris(2-carboxyethyl)phosphine hydrochloride) and 50 nM SMAC-FITC probe (AbuRPF-K(5-Fam)-NH2) as described by Z. Nikolovska-Coleska et al.^9. cIAP1 and XIAP were present at 800 nM while cIAP2 and MLIAP were present at 1.5 μM. Compounds in 3-fold dilutions were added to the plates ranging from 30 μM to 1.5 nM. Assays were run in 384-well black plates read (Greiner Bio-One #784076) in an Analyst in fluorescence polarization mode with excitation at 485 nm and emission at 535 nm. Data was fit to a nonlinear regression curve in GraphPad Prism 8 to determine the IC50 values of the compounds. Ki's were then calculated from the IC50 values using equation: Ki=[I]50/([L]50/Kd+[P]0/Kd+1) formulated by Z. Nikolovska-Coleska et al.

[5] = test system: latently infected cell line Jurkat 2D10; experiment: HIV Jurkat 2D10 cells GFP+ assay (reversal of HIV latency); type: cell-based; conditions: Homo sapiens, Jurkat, 48 h, read-out: Jurkat 2D10 GFP+ EC50
Protocol: Several compounds (Table 5) were tested for their efficacy in the reversal of HIV latency in the latently infected cell line Jurkat 2D10. Jurkat 2D10 cells were treated with different doses of the compounds, or one of the following compounds: BV-6, SM-164, Birinapant, LCL-161, GDC-0152, AT-406 for 48 hours. Reversal of HW latency was evaluated by analyzing GFP expression using flow cytometry. Induction of GFP expression was compared to baseline GFP levels detected in the absence of treatment.

SMILES | IC50 [1] | IC50 [2] | IC50 [3] | Ki [4] | EC50 [5]
CN[C@@H](C)C(=O)N[C@H]1CCS[C@H]2CC(C)(C)[C@@H](C(=O)N[C@H]3c4ccccc4C[C@H]3OCC#Cc3cccc(C#CCO[C@@H]4Cc5ccccc5[C@@H]4NC(=O)[C@H]4N5C(=O)[C@@H](NC(=O)[C@H](C)NC)CCS[C@H]5CC4(C)C)c3)N2C1=O [Compound 18d] | < 10 nM | 100 to 1000 nM | < 10 nM | ≤ 50 nM | < 1 nM
CN[C@@H](C)C(=O)N[C@H]1CCS[C@H]2CC(C)(C)[C@@H](C(=O)N[C@H]3c4ccccc4C[C@H]3OCc3ccc(-c4ccc(CO[C@@H]5Cc6ccccc6[C@@H]5NC(=O)[C@H]5N6C(=O)[C@@H](NC(=O)[C@H](C)NC)CCS[C@H]6CC5(C)C)cc4)cc3)N2C1=O [Compound 18f, (2S)-1-{[(4S,7S,9aS)-7-{[(1S,2R)-2-({4-[4-({[(1S,2R)-1-({[(4S,7S,9aS)-8,8-Dimethyl-4-{[(2S)-2-(methylammonio)propanoyl]amino}-5-oxooctahydropyrrolo[2,1-b][1,3]thiazepin-7-yl]carbonyl}amino)-2,3-dihydro-1H-inden-2-yl]oxy}methyl)phenyl]benzyl}oxy)-2,3-dihydro-1H-inden-1-yl]carbamoyl}-8,8-dimethyl-5-oxooctahydropyrrolo[2,1-b][1,3]thiazepin-4-yl]amino}-N-methyl-1-oxopropan-2-ammonium dichloride] | < 10 nM | 100 to 1000 nM | < 10 nM | 50 to 100 nM | 1 to 10 nM
CN[C@@H](C)C(=O)N[C@H]1CCS[C@H]2CC(C)(C)[C@@H](C(=O)N[C@H]3c4ccccc4C[C@H]3OCCS(=O)(=O)CCO[C@@H]3Cc4ccccc4[C@@H]3NC(=O)[C@H]3N4C(=O)[C@@H](NC(=O)[C@H](C)NC)CCS[C@H]4CC3(C)C)N2C1=O [Compound 18h, (2S)-1-{[(4S,7S,9aS)-7-{[(1S,2R)-2-{2-[(2-{[(1S,2R)-1-({[(4S,7S,9aS)-8,8-Dimethyl-4-{[(2S)-2-(methylammonio)propanoyl]amino}-5-oxooctahydropyrrolo[2,1-b][1,3]thiazepin-7-yl]carbonyl}amino)-2,3-dihydro-1H-inden-2-yl]oxy}ethyl)sulfonyl]ethoxy}-2,3-dihydro-1H-inden-1-yl]carbamoyl}-8,8-dimethyl-5-oxooctahydropyrrolo[2,1-b][1,3]thiazepin-4-yl]amino}-N-methyl-1-oxopropan-2-ammonium dichloride] | < 10 nM |  | 10 to 100 nM | ≤ 50 nM | 10 to 100 nM
CN[C@@H](C)C(=O)N[C@H]1CCS[C@H]2CC(C)(C)[C@@H](C(=O)N[C@H]3c4ccccc4C[C@H]3OCC#CCO[C@@H]3Cc4ccccc4[C@@H]3NC(=O)[C@H]3N4C(=O)[C@@H](NC(=O)[C@H](C)NC)CCS[C@H]4CC3(C)C)N2C1=O [Compound 18j] | < 10 nM | 1000 to 10000 nM | 10 to 100 nM | ≤ 50 nM | 1000 to 10000 nM
CNC(C)(C)C(=O)N[C@H]1CCS[C@H]2CC(C)(C)[C@@H](C(=O)N[C@H]3c4ccccc4C[C@H]3OCC#CC#CCO[C@@H]3Cc4ccccc4[C@@H]3NC(=O)[C@H]3N4C(=O)[C@@H](NC(=O)C(C)(C)NC)CCS[C@H]4CC3(C)C)N2C1=O [Compound 18k, 1-{[(4S,7S,9aS)-7-({(1S,2R)-2-[(6-{[(1S,2R)-1-({[(4S,7S,9aS)-8,8-Dimethyl-4-{[2-methyl-2-(methylammonio)propanoyl]amino}-5-oxooctahydropyrrolo[2,1-b][1,3]thiazepin-7-yl]carbonyl}amino)-2,3-dihydro-1H-inden-2-yl]oxy}hexa-2,4-diyn-1-yl)oxy]-2,3-dihydro-1H-inden-1-yl}carbamoyl)-8,8-dimethyl-5-oxooctahydropyrrolo[2,1-b][1,3]thiazepin-4-yl]amino}-N,2-dimethyl-1-oxopropan-2-ammonium dichloride] | 10 to 100 nM | 1000 to 10000 nM | 100 to 1000 nM | 50 to 100 nM | > 10000 nM
CN[C@@H](C)C(=O)N[C@H]1CCS[C@H]2CC(C)(C)[C@@H](C(=O)N[C@H](CCC(=O)NCCNC(=O)CC[C@@H](NC(=O)[C@H]3N4C(=O)[C@@H](NC(=O)[C@H](C)NC)CCS[C@H]4CC3(C)C)c3ccccc3)c3ccccc3)N2C1=O [Compound 18l, (2S)-1-{[(4S,7S,9aS)-74{(1R)-4-[(2-{[(4R)-4-({[(4S,7S,9aS)-8,8-Dimethyl-4-{[(2S)-2-(methylammonio)propanoyl]amino}-5-oxooctahydropyrrolo[2,1-b][1,3]thiazepin-7-yl]carbonyl}amino)-4-phenylbutanoyl]amino}ethyl)amino]-4-oxo-1-phenylbutyl}carbamoyl)-8,8-dimethyl-5-oxooctahydropyrrolo[2,1-b][1,3]thiazepin-4-yl]amino}-N-methyl-1-oxopropan-2-ammonium dichloride] | 10 to 100 nM |  | 100 to 1000 nM | ≤ 50 nM | 100 to 1000 nM
C=CCC1(CC=C)C[C@@H]2SCC[C@H](NC(=O)[C@H](C)NC)C(=O)N2[C@@H]1C(=O)N[C@H]1c2ccccc2C[C@H]1OCC#CC#CCO[C@@H]1Cc2ccccc2[C@@H]1NC(=O)[C@H]1N2C(=O)[C@@H](NC(=O)[C@H](C)NC)CCS[C@H]2CC1(CC=C)CC=C [Compound 18n, (2S)-2-{[(4S,7S,9aS)-7-{[(1S,2R)-2-[(6-{[(1S,2R)-1-[(4S,7S,9aS)-4-[(2S)-2-(Methylamino)propanamido]-5-oxo-8,8-bis(prop-2-en-1-yl)-octahydropyrrolo[2,1-b][1,3]thiazepine-7-amido]-2,3-dihydro-1H-inden-2-yl]oxy}hexa-2,4-diyn-1-yl)oxy]-2,3-dihydro-1H-inden-1-yl]carbamoyl}-5-oxo-8,8-bis(prop-2-en-1-yl)-octahydropyrrolo[2,1-b][1,3]thiazepin-4-yl]carbamoyl}-2-(methylazaniumyl)ethanide dichloride] |  | 100 to 1000 nM | 10 to 100 nM | 50 to 100 nM | 10 to 100 nM
CN[C@@H](C)C(=O)N[C@H]1CCS[C@H]2C[C@H](O)[C@@H](C(=O)N[C@H]3c4ccccc4C[C@H]3OCC#CC#CCO[C@@H]3Cc4ccccc4[C@@H]3NC(=O)[C@@H]3[C@@H](O)C[C@@H]4SCC[C@H](NC(=O)[C@H](C)NC)C(=O)N43)N2C1=O [Compound 18p, [(1S)-1-{[(4S,7S,8S,9aS)-7-{[(1S,2R)-2-[(6-{[(1S,2R)-1-[(4S,7S,8S,9aS)-8-Hydroxy-4-[(2S)-2-(methylazaniumyl)propanamido]-5-oxo-octahydropyrrolo[2,1-b][1,3]thiazepine-7-amido]-2,3-dihydro-1H-inden-2-yl]oxy}hexa-2,4-diyn-1-yl)oxy]-2,3-dihydro-1H-inden-1-yl]carbamoyl}-8-hydroxy-5-oxo-octahydropyrrolo[2,1-b][1,3]thiazepin-4-yl]carbamoyl}ethyl](methyl)azanium dichloride] |  |  |  |  | 100 to 1000 nM
CN[C@@H](C)C(=O)N[C@H]1CCS[C@H]2CC3(CCCC3)[C@@H](C(=O)N[C@H]3c4ccccc4C[C@H]3OCC#CC#CCO[C@@H]3Cc4ccccc4[C@@H]3NC(=O)[C@H]3N4C(=O)[C@@H](NC(=O)[C@H](C)NC)CCS[C@H]4CC34CCCC4)N2C1=O [Compound 18r] |  |  |  |  | 10 to 100 nM
